Measured values: the supplement of paper PMC4862054

Assays:
[1] = system: BT-549; test: normalised viability (% of control), CellTiter-Blue; higher = more viable cells (about 100 = DMSO control); conditions: 10000 nM; incubation time: 72 h
In short: (§1)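 The reported quantity is normalised viability at a single listed concentration of the series. Compound in 5 µl medium was pre-dispensed into 384-well plates and 20 µl of breast cancer cell suspension was added for 72 h. A 2 h, 37 °C CellTiter-Blue step (2.5 µl) preceded fluorescence reading at 560/590 nm, and plates were normalised to vehicle (100) and a positive kill control (0).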

[2] = system: CAL-120; test: as above; conditions: 10000 nM; incubation time: 72 h
In short: as §1

[3] = system: CAL-51; test: as above; conditions: 100 nM; incubation time: 72 h
In short: as §1

[4] = system: CAL-85-1; test: as above; conditions: 100 nM; incubation time: 72 h
In short: as §1

[5] = system: DU-4475; test: as above; conditions: 100 nM; incubation time: 72 h
In short: as §1

[6] = system: HCC1143; test: as above; conditions: 10000 nM; incubation time: 72 h
In short: as §1

[7] = system: HCC1599; test: as above; conditions: 10000 nM; incubation time: 72 h
In short: as §1

[8] = system: HCC1937; test: as above; conditions: 10000 nM; incubation time: 72 h
In short: as §1

[9] = system: Hs578T; test: as above; conditions: 10000 nM; incubation time: 72 h
In short: as §1

[10] = system: MDA-MB-453; test: as above; conditions: 100 nM; incubation time: 72 h
In short: as §1

[11] = system: MDA-MB-468; test: as above; conditions: 10000 nM; incubation time: 72 h
In short: as §1

[12] = system: MFM-223; test: as above; conditions: 10000 nM; incubation time: 72 h
In short: as §1

[13] = system: SK-BR-3; test: as above; conditions: 10000 nM; incubation time: 72 h
In short: as §1

[14] = system: BT-474; test: drug sensitivity score (DSS), CellTiter-Blue viability (DSS (AUC-based score)); higher = stronger viability inhibition; extreme values may be limits of the assay; conditions: incubation time: 72 h
Description: (§2)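 DSRT with the CellTiter-Blue (resazurin reduction) viability readout, fluorescence 560/590 nm, 72 h incubation. Plates were normalised to DMSO and benzethonium chloride controls. DSS is computed from the area under the fitted dose-response curve (5 or 9 concentrations).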

[15] = system: BT-549; test: as above; conditions: incubation time: 72 h
Description: as §2

[16] = system: CAL-120; test: as above; conditions: incubation time: 72 h
Description: as §2

[17] = system: CAL-51; test: as above; conditions: incubation time: 72 h
Description: as §2

[18] = system: CAL-85-1; test: as above; conditions: incubation time: 72 h
Description: as §2

[19] = system: DU-4475; test: as above; conditions: incubation time: 72 h
Description: as §2

[20] = system: HCC1143; test: as above; conditions: incubation time: 72 h
Description: as §2

[21] = system: HCC1599; test: as above; conditions: incubation time: 72 h
Description: as §2

[22] = system: HCC1937; test: as above; conditions: incubation time: 72 h
Description: as §2

[23] = system: HDQ-P1; test: as above; conditions: incubation time: 72 h
Description: as §2

[24] = system: Hs578T; test: as above; conditions: incubation time: 72 h
Description: as §2

[25] = system: MDA-MB-436; test: as above; conditions: incubation time: 72 h
Description: as §2

[26] = system: MDA-MB-453; test: as above; conditions: incubation time: 72 h
Description: as §2

[27] = system: MDA-MB-468; test: as above; conditions: incubation time: 72 h
Description: as §2

[28] = system: MFM-223; test: as above; conditions: incubation time: 72 h
Description: as §2

[29] = system: SK-BR-3; test: as above; conditions: incubation time: 72 h
Description: as §2

SMILES	normalised viability [1] [%]	normalised viability [2] [%]	normalised viability [3] [%]	normalised viability [4] [%]	normalised viability [5] [%]	normalised viability [6] [%]	normalised viability [7] [%]	normalised viability [8] [%]	normalised viability [9] [%]	normalised viability [10] [%]	normalised viability [11] [%]	normalised viability [12] [%]	normalised viability [13] [%]	drug sensitivity score [14]	drug sensitivity score [15]	drug sensitivity score [16]	drug sensitivity score [17]	drug sensitivity score [18]	drug sensitivity score [19]	drug sensitivity score [20]	drug sensitivity score [21]	drug sensitivity score [22]	drug sensitivity score [23]	drug sensitivity score [24]	drug sensitivity score [25]	drug sensitivity score [26]	drug sensitivity score [27]	drug sensitivity score [28]	drug sensitivity score [29]
CN1CCN(CCOc2cc(OC3CCOCC3)c3c(Nc4c(Cl)ccc5c4OCO5)ncnc3c2)CC1 [Saracatinib]	47.4	61.1	99.1	98	98.9	46.2	83.7	116	69.7	105	57.8	77.1	39.7	5.44	5	4.64	8.13	9.72	0	0	0.195	0	11.5	0	0.375	4.51	4.05	0	3.37
CN(C)C[C@@H]1CCn2cc(c3ccccc32)C2=C(C(=O)NC2=O)c2cn(c3ccccc23)CCO1 [Ruboxistaurin]	43.7	38.9	88.8	115	95.6	94	58.1	35.1	42.9	93	8.88	30.1	4	6.23	3.74	1.65	4.59	0	6.32	0	3.54	6.14	3.47	1.19	10.7	4.14	6.34	6.81	6.94
COc1ccc(-c2ccc3c(N4CCOC[C@@H]4C)nc(N4CCOC[C@@H]4C)nc3n2)cc1CO [AZD8055]	14.4	9.25	27.3	46.3	58.6	28.4	43.4	40.3	17.6	21.1	21.4	14.6	10.4	20	22.4	25	28.8	23.6	20.9	18.1	14.5	21.7	23.9	23.6	15.6	29	16.8	27.6	28.6
